Tests used:
Assay in all cases: CHIR dose: hematopoietic/erythroid differentiation of agitated hPSC-MC aggregates
Format in all cases: cell-based, human
BR2 O-neg hiPSC line = test system: BR2 O-neg hiPSC line
Procedure: (§1) Human pluripotent stem cell-microcarrier (HPSC-MC) aggregates generated from different hPSC lines were differentiated using 3 different CHIR doses (5, 10 and 15 μM for 24 hours) and were evaluated for T-bra (day 2) and KDR+PDGFRβ− (day 4) expression by flow cytometry, induction of key hematopoietic transcription factors by RT-PCR (day 4), hematopoietic precursor expansion (day 14) and erythroblast expansion (day 42).
(§2) Table 2—Hematopoietic differentiation of nine human pluripotent stem cell (hPSC) lines, from expansion in agitated microcarrier culture to erythroblast expansion—This table summarises the different stages of differentiation; hPSC expansion, mesoderm induction, hematopoietic precursor and erythroblast expansion of multiple hPSC-MC aggregate lines differentiated with optimal dose of CHIR-99021. Fold-expansion of hPSC-MC aggregates following 7 days of agitated culture, hematopoietic precursors following 14 days of culture in methylcellulose medium and erythroblast expansion following 24 days in expansion medium are reported. Flow cytometric evaluation of % T-bra+ cells on day 2 and % KDR+ cells on day 4 during mesoderm induction, % CD43+ cells during hematopoietic precursor expansion, % CD235a+ cells and fetal hemoglobin expression during erythroblast expansion stage are summarised. Total erythroid cells per hPSC seeded on day 42 was calculated as number of embryoid bodies derived on day 4 per hPSC seeded*erythroblast fold expansion*percent CD235a+ erythroblast.
(§3) Analysis of Design of experiments (DoE) outcomes and evaluation of selected conditions generated by the MODDE® software allowed the development of an optimized protocol for hematopoietic mesoderm induction of human pluripotent stem cell-microcarrier (hPSC-MC) aggregates initially expanded under continuous agitation. Approximately 2 to 4 million hPSC-MC aggregates in 3 ml of Stemline® II medium were differentiated as follows: day 1; 30 ng/ml of BMP4, 50 ng/ml VEGF165, 12 μM CHIR-99021 (Selleck Chemicals, USA), 50 ng/ml Activin A, day 2; 30 ng/ml of BMP4, 50 ng/ml VEGF165, 50 ng/ml Activin A, day 3: 30 ng/ml of BMP4, 50 ng/ml VEGF165 and 20 ng/ml bFGF. Four days post-differentiation, single cells derived by TrypLE™ Express (ThermoFisher Scientific) treatment and strained through 40 μm cell strainers (Greiner Bio-one, Germany) were used for hematopoietic precursor and erythroblast expansion and erythroblast terminal maturation as detailed herein. Hematopoietic and erythroblast differentiation were monitored by flow cytometry, quantitative real-time PCR, immunoblotting and microscopic imaging. Oxygen binding affinity of differentiated erythroblast was determined using a Hemox Analyzer (TCS Scientific Corp, USA).
(§4) HPSC-MC aggregates were dissociated into single cells by treatment with TrypLE. Express (ThermoFisher Scientific) for 5 minutes at 37° C., passed through 40 μm cell strainer (Greiner Bio-one), centrifuged at 1300 rpm for 3 minutes to pellet cells, and rinsed once with phosphate buffered saline (PBS) before re-suspension in Stemline II medium. Two hundred thousand cells in 100 μl of Stemline II medium were transferred to a 6-well ultra-low attachment plate and cultured with Blast growth medium (BGM) for 2 weeks in static conditions as detailed herein.
(§5) Hematopoietic precursors were mixed with equal volume of Stemline II medium containing 50 ng/ml of SCF (STEMCELL. Technologies) and 3 U/ml EPO (Peprotech, USA), for an additional 7 days. Subsequently, cells were diluted 10-fold with PBS and pelleted by centrifugation at 3000 rpm for 10 minutes. […]

D11 O-neg hiPSC line = test system: D11 O-neg hiPSC line
Procedure: as §1, §2, §3, §4, §5

D12 O-neg hiPSC line = test system: D12 O-neg hiPSC line
Procedure: as §1, §2, §3, §4, §5

D5 O-neg hiPSC line = conditions: for Erythroblast expansion Fold-expansion: optimal dose of CHIR-99021, 24 days in erythroblast expansion medium (static), cumulative
Procedure: as §1, §2, §3, §4, §5

D9 O-neg hiPSC line = conditions: for Erythroblast expansion Fold-expansion: optimal dose of CHIR-99021, 24 days in erythroblast expansion medium (static), cumulative
Procedure: as §1, §2, §3, §4, §5

IMR90 hiPSC line = conditions: for Erythroblast expansion Fold-expansion: optimal dose of CHIR-99021, 24 days in erythroblast expansion medium (static), cumulative
Procedure: as §1, §2, §3, §4, §5

X13 O-neg hiPSC line = conditions: for Erythroblast expansion Fold-expansion: optimal dose of CHIR-99021, 24 days in erythroblast expansion medium (static), cumulative; for Total erythroid cells per hPSC seeded (day 42): optimal dose of CHIR-99021, CD235a+ erythroid cells
Procedure: as §1, §2, §3, §4, §5

hES-3 hESC line = conditions: for Erythroblast expansion Fold-expansion: optimal dose of CHIR-99021, 24 days in erythroblast expansion medium (static), cumulative
Procedure: as §1, §2, §3, §4, §5

[1] = 15 μM CHIR dose, day 14 post differentiation
[2] = 15 μM CHIR for 24 hours, day 2, flow cytometry
[3] = 15 μM CHIR for 24 hours, day 4, flow cytometry
[4] = erythroblast expansion medium, up to day 42
[5] = optimal dose of CHIR-99021, 14 days in methyl cellulose medium
[6] = optimal dose of CHIR-99021, 14 days in methyl cellulose medium (static)
[7] = optimal dose of CHIR-99021, day 2
[8] = optimal dose of CHIR-99021, day 4
[9] = optimal dose of CHIR-99021, erythroblast expansion stage
[10] = optimal dose of CHIR-99021, fetal hemoglobin, flow cytometry

SMILES: Cc1c[nH]c(-c2cnc(NCCNc3ccc(C#N)cn3)nc2-c2ccc(Cl)cc2Cl)n1 [CHIR-99021, 6-[[2-[[4-(2,4-Dichlorophenyl)-5-(5-methyl-1H-imidazol-2-yl)-2-pyrimidinyl]amino]ethyl]amino]-3-pyridinecarbonitrile]
- fold-expansion of hematopoietic precursors (BR2 O-neg hiPSC line; [1]): 8.07±2.06 fold
- T-Bra+ cells (BR2 O-neg hiPSC line; [2]): 20.1±2.4%
- KDR+PDGFRβ- cells (BR2 O-neg hiPSC line; [3]): 24.07±1.34%
- erythroblast differentiation (BR2 O-neg hiPSC line; [4]): failed to differentiate into erythroid cells
- Hematopoietic precursor expansion % CD43 (BR2 O-neg hiPSC line; [5]): 8.7%
- Hematopoietic precursor expansion Fold-expansion (BR2 O-neg hiPSC line; [6]): 8.1 fold
- Mesoderm induction % T-Bra (BR2 O-neg hiPSC line; [7]): 20.1%
- Mesoderm induction % KDR+ PDGFRα− (BR2 O-neg hiPSC line; [8]): 24.1%
- fold-expansion of hematopoietic precursors (D11 O-neg hiPSC line; [1]): 3.2±0.33 fold
- T-Bra+ cells (D11 O-neg hiPSC line; [2]): 33.4±4.10%
- KDR+PDGFRβ- cells (D11 O-neg hiPSC line; [3]): 11.74±1.16%
- erythroblast differentiation (D11 O-neg hiPSC line; [4]): failed to differentiate into erythroid cells
- Hematopoietic precursor expansion % CD43 (D11 O-neg hiPSC line; [5]): 17.4%
- Hematopoietic precursor expansion Fold-expansion (D11 O-neg hiPSC line; [6]): 3.2 fold
- Mesoderm induction % T-Bra (D11 O-neg hiPSC line; [7]): 33.4%
- Mesoderm induction % KDR+ PDGFRα− (D11 O-neg hiPSC line; [8]): 11.7%
- fold-expansion of hematopoietic precursors (D12 O-neg hiPSC line; [1]): 5.26±1.32 fold
- T-Bra+ cells (D12 O-neg hiPSC line; [2]): 10.6±2.78%
- KDR+PDGFRβ- cells (D12 O-neg hiPSC line; [3]): 31.13±5.17%
- erythroblast differentiation (D12 O-neg hiPSC line; [4]): failed to differentiate into erythroid cells
- Hematopoietic precursor expansion % CD43 (D12 O-neg hiPSC line; [5]): 22%
- Hematopoietic precursor expansion Fold-expansion (D12 O-neg hiPSC line; [6]): 7.9 fold
- Mesoderm induction % T-Bra (D12 O-neg hiPSC line; [7]): 10.9%
- Mesoderm induction % KDR+ PDGFRα− (D12 O-neg hiPSC line; [8]): 20.7%
- fold-expansion of hematopoietic precursors (D5 O-neg hiPSC line; [1]): 7.99±0.82 fold
- T-Bra+ cells (D5 O-neg hiPSC line; [2]): 55.6±8.26%
- KDR+PDGFRβ- cells (D5 O-neg hiPSC line; [3]): 35.77±1.53%
- Total erythroid cells per hPSC seeded (day 42) (D5 O-neg hiPSC line; optimal dose of CHIR-99021): 2308
- Hematopoietic precursor expansion % CD43 (D5 O-neg hiPSC line; [5]): 27.7%
- Hematopoietic precursor expansion Fold-expansion (D5 O-neg hiPSC line; [6]): 7.9 fold
- Erythroblast expansion Fold-expansion (D5 O-neg hiPSC line; day 42): 3712 fold
- Erythroblast expansion Fold-expansion (D5 O-neg hiPSC line; day 42, listed as CHIR): 3712±1651 fold
- Mesoderm induction % T-Bra (D5 O-neg hiPSC line; [7]): 55.6%
- Erythroblast expansion % CD235a+ (D5 O-neg hiPSC line; [9]): 74.6%
- Erythroblast expansion Hemoglobin expression (D5 O-neg hiPSC line; [10]): 99.2
- T-Bra+ cells (D9 O-neg hiPSC line; [2]): 39±5.37%
- KDR+PDGFRβ- cells (D9 O-neg hiPSC line; [3]): 18.07±0.6%
- Total erythroid cells per hPSC seeded (day 42) (D9 O-neg hiPSC line; optimal dose of CHIR-99021): 63
- Hematopoietic precursor expansion % CD43 (D9 O-neg hiPSC line; [5]): 21.3%
- Hematopoietic precursor expansion Fold-expansion (D9 O-neg hiPSC line; [6]): 6.0 fold
- Erythroblast expansion Fold-expansion (D9 O-neg hiPSC line; day 42): 121 fold
- Erythroblast expansion Fold-expansion (D9 O-neg hiPSC line; day 42, listed as CHIR): 121.2±36.89 fold
- Mesoderm induction % T-Bra (D9 O-neg hiPSC line; [7]): 41.8%
- Erythroblast expansion % CD235a+ (D9 O-neg hiPSC line; [9]): 57.5%
- Erythroblast expansion Hemoglobin expression (D9 O-neg hiPSC line; [10]): 97.8
- T-Bra+ cells (IMR90 hiPSC line; [2]): 17.22±7.4%
- KDR+PDGFRβ- cells (IMR90 hiPSC line; [3]): 14.2±1.69%
- Total erythroid cells per hPSC seeded (day 42) (IMR90 hiPSC line; optimal dose of CHIR-99021): 1300
- Hematopoietic precursor expansion % CD43 (IMR90 hiPSC line; [5]): 21.9%
- Hematopoietic precursor expansion Fold-expansion (IMR90 hiPSC line; [6]): 7.9 fold
- Erythroblast expansion Fold-expansion (IMR90 hiPSC line; day 42): 918.1 fold
- Erythroblast expansion Fold-expansion (IMR90 hiPSC line; day 42, listed as CHIR): 918.1±342.4 fold
- Mesoderm induction % T-Bra (IMR90 hiPSC line; [7]): 17.2%
- Erythroblast expansion % CD235a+ (IMR90 hiPSC line; [9]): 75.9%
- Erythroblast expansion Hemoglobin expression (IMR90 hiPSC line; [10]): 98.1
- fold-expansion of hematopoietic precursors (X13 O-neg hiPSC line; [1]): 9.93±0.28 fold
- T-Bra+ cells (X13 O-neg hiPSC line; [2]): 60.9±8.55%
- KDR+PDGFRβ- cells (X13 O-neg hiPSC line; [3]): 40.8±1.34%
- Hematopoietic precursor expansion % CD43 (X13 O-neg hiPSC line; [5]): 43.9%
- Hematopoietic precursor expansion Fold-expansion (X13 O-neg hiPSC line; [6]): 9.9 fold
- Erythroblast expansion Fold-expansion (X13 O-neg hiPSC line; day 42): 12605 fold
- Erythroblast expansion Fold-expansion (X13 O-neg hiPSC line; day 42, listed as CHIR): 12605±2126 fold
- Total erythroid cells per hPSC seeded (day 42) (X13 O-neg hiPSC line): 7607
- Total erythroid cells per hPSC seeded (day 42) (X13 O-neg hiPSC line; listed as CHIR): 7607±1016
- Mesoderm induction % T-Bra (X13 O-neg hiPSC line; [7]): 60.9%
- Erythroblast expansion % CD235a+ (X13 O-neg hiPSC line; [9]): 67.4%
- Erythroblast expansion Hemoglobin expression (X13 O-neg hiPSC line; [10]): 96.9
- fold-expansion of hematopoietic precursors (hES-3 hESC line; [1]): 6.97±1.35 fold
- T-Bra+ cells (hES-3 hESC line; [2]): 18±3.82%
- KDR+PDGFRβ- cells (hES-3 hESC line; [3]): 14.6±0.81%
- Total erythroid cells per hPSC seeded (day 42) (hES-3 hESC line; optimal dose of CHIR-99021): 244
- Hematopoietic precursor expansion % CD43 (hES-3 hESC line; [5]): 42.8%
- Hematopoietic precursor expansion Fold-expansion (hES-3 hESC line; [6]): 6.9 fold
- Erythroblast expansion Fold-expansion (hES-3 hESC line; day 42): 324 fold
- Erythroblast expansion Fold-expansion (hES-3 hESC line; day 42, listed as CHIR): 324±83.97 fold
- Mesoderm induction % T-Bra (hES-3 hESC line; [7]): 18%
- Erythroblast expansion % CD235a+ (hES-3 hESC line; [9]): 78.5%
- Erythroblast expansion Hemoglobin expression (hES-3 hESC line; [10]): 99.3

Reference: patent US12104173B2, “Method for differentiation of human pluripotent stem cell lines in suspension culture” (AGENCY FOR SCIENCE, TECHNOLOGY AND RESEARCH, priority 2018, dated 2024)
